Reference: paper PMC9302689 (British Journal of Clinical Pharmacology, 2022)

Assays:
[1] = Preclinical pharmacokinetic studies; assay type: in vivo; conditions: dogs and rats, oral administration
α1A‐adrenoceptor = target: T1, α1A‐adrenoceptor (Homo sapiens, UniProt P35348); assay: In vitro binding affinity, α1A-adrenoceptor; conditions: read-out: Ki, α1A-adrenoceptor; preclinical in vitro panel
T1 sequence (P35348 1-466): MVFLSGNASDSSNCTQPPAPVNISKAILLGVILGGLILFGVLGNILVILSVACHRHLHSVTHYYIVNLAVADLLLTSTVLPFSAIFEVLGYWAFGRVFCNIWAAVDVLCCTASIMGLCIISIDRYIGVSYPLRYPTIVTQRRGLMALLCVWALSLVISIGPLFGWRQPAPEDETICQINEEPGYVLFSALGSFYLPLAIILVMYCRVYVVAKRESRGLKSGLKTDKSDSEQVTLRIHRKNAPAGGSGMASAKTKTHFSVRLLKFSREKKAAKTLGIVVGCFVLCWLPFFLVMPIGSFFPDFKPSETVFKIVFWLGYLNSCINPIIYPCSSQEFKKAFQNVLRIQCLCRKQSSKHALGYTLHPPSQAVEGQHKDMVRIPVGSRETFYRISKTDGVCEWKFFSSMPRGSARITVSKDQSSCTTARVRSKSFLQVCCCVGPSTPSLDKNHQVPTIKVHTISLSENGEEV

α1B‐adrenoceptor = target: T2, α1B‐adrenoceptor (Homo sapiens, UniProt P35368); assay: In vitro binding affinity, α1B-adrenoceptor; conditions: read-out: Ki, α1B-adrenoceptor; preclinical in vitro panel
T2 sequence (P35368 1-520): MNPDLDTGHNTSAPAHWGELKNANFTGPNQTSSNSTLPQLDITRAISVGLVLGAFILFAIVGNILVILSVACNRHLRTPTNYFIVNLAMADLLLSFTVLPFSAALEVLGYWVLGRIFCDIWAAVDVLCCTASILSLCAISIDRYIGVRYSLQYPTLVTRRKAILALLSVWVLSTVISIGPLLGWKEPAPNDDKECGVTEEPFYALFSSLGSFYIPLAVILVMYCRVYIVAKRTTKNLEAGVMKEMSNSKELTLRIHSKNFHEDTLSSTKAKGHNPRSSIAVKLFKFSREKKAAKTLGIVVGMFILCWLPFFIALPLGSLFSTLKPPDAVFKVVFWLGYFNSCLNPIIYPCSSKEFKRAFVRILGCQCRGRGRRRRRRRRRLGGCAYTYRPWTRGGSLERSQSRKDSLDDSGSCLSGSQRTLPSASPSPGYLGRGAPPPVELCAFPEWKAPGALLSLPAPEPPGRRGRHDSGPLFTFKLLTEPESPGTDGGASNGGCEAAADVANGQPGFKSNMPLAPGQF

SERT = SERT (Homo sapiens, UniProt P31645); assay: In vitro binding affinity, SERT; conditions: read-out: Ki, SERT; preclinical in vitro panel
dogs = assay: Preclinical multiple dose toxicology study in dogs; assay type: in vivo

SERT, sequence (P31645 whole entry, species assumed): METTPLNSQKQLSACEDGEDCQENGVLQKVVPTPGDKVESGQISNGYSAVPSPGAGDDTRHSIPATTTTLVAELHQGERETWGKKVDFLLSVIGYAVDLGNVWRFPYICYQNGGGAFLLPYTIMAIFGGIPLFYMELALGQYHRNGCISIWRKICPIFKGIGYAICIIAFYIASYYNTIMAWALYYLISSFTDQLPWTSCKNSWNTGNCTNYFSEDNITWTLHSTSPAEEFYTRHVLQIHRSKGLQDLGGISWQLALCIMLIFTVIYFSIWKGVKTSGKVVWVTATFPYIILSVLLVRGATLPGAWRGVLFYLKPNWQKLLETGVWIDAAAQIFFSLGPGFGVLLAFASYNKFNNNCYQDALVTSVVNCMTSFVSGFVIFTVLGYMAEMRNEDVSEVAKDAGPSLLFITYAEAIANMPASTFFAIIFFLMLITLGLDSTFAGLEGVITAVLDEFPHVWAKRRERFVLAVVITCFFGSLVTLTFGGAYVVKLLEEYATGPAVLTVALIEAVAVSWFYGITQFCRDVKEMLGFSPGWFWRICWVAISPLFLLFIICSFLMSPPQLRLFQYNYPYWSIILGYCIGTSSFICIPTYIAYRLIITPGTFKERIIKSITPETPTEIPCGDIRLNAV

Question: What does the source list for `CN1CCC23CCCCC2C1Cc1ccc(C(N)=O)cc13` (stereo not drawn) [ALKS 7119, (9α, 13α)‐17‐methylmorphinan‐3‐carboxamide]?
Answer: median time to maximum plasma concentration (tmax) [1]: 30 min; Ki (α1A‐adrenoceptor): 980 nM; Ki (α1B‐adrenoceptor): 1800 nM; Ki (SERT): 35 nM; human equivalent dose (HED) of NOAEL (dogs; dog NOAEL): 97.2 mg; NOAEL (dogs; dogs, multiple dose toxicology): 3 mg/kg
